What all share (format): functional, cell-based
For data set [1], the target named is T1, ATP-dependent translocase ABCB1 (Homo sapiens, UniProt P08183). The experiment in a line: TP_TRANSPORTER: inhibition of Digoxin transepithelial transport (basal to apical) (Digoxin: 0.025 uM, Oxidized nifedipine: 50 uM) in MDR1-expressing LLC-PK1 cells. Particulars: pig, llc-pk1, 50 µM.
Data set [2] deals with T1, ATP-dependent translocase ABCB1. The experiment in a line: TP_TRANSPORTER: inhibition of Daunorubicin transepithelial transport (basal to apical) (Daunorubicin: 0.035 uM, Oxidized nifedipine: 50 uM) in MDR1-expressing LLC-PK1 cells. Particulars: pig, llc-pk1, 50 µM.
Data set [3] shares this target. The experiment in a line: TP_TRANSPORTER: inhibition of Daunorubicin transepithelial transport (basal to apical)(Daunorubicin: 0.035 uM, 4-hydroxymidazolam: 50 uM) in MDR1-expressing LLC-PK1 cells. Particulars: pig, llc-pk1, 50 µM.
Data set [4] has the same target. The experiment in a line: TP_TRANSPORTER: inhibition of Digoxin transepithelial transport (basal to apical)(Digoxin: 0.025 uM, 6-hydroxyazelastine: 50 uM) in MDR1-expressing LLC-PK1 cells. The note with it: pig, llc-pk1, 50 µM.
Data set [5] shares this target. The experiment in a line: TP_TRANSPORTER: inhibition of Daunorubicin transepithelial transport (basal to apical)(Daunorubicin: 0.035 uM, 6-hydroxyazelastine: 50 uM) in MDR1-expressing LLC-PK1 cells. The note with it: pig, llc-pk1, 50 µM.
Data set [6] has the same target. The experiment in a line: TP_TRANSPORTER: inhibition of Digoxin transepithelial transport (basal to apical)(Digoxin: 0.025 uM, 6beta-hydroxytestosterone: 50 uM) in MDR1-expressing LLC-PK1 cells. The note with it: pig, llc-pk1, 50 µM.
Data set [7] has the same target. The experiment in a line: TP_TRANSPORTER: inhibition of Daunorubicin transepithelial transport (basal to apical)(Daunorubicin: 0.035 uM, 6beta-hydroxytestosterone: 50 uM) in MDR1-expressing LLC-PK1 cells. The note with it: pig, llc-pk1, 50 µM.
For data set [8] the target is unchanged. The experiment in a line: TP_TRANSPORTER: inhibition of Digoxin transepithelial transport (basal to apical)(Digoxin: 0.025 uM, 1'-hydroxymidazolam: 50 uM) in MDR1-expressing LLC-PK1 cells. The note with it: pig, llc-pk1, 50 µM.
Data set [9] shares this target. The experiment in a line: TP_TRANSPORTER: inhibition of Daunorubicin transepithelial transport (basal to apical)(Daunorubicin: 0.035 uM, 1'-hydroxymidazolam: 50 uM) in MDR1-expressing LLC-PK1 cells. Particulars: pig, llc-pk1, 50 µM.
Data set [10] has the same target. The experiment in a line: TP_TRANSPORTER: inhibition of Digoxin transepithelial transport (basal to apical) (Digoxin: 0.025 uM) in MDR1-expressing LLC-PK1 cells.
For data set [11] the target is unchanged. The experiment in a line: TP_TRANSPORTER: inhibition of Daunorubicin transepithelial transport (basal to apical) (Daunorubicin: 0.035 uM) in MDR1-expressing LLC-PK1 cells.
The target is the same in data set [12]. The experiment in a line: TP_TRANSPORTER: inhibition of Digoxin transepithelial transport (basal to apical)(Digoxin: 0.025 uM, Midazolam: 50 uM) in MDR1-expressing LLC-PK1 cells. Particulars: pig, llc-pk1, 50 µM.
Data set [13] shares this target. The experiment in a line: TP_TRANSPORTER: inhibition of Daunorubicin transepithelial transport (basal to apical)(Daunorubicin: 0.035 uM, Midazolam: 50 uM) in MDR1-expressing LLC-PK1 cells. Particulars: pig, llc-pk1, 50 µM.
The target is the same in data set [14]. The experiment in a line: TP_TRANSPORTER: inhibition of Daunorubicin transepithelial transport (basal to apical) (Daunorubicin: 0.035 uM, Nifedipine: 50 uM) in MDR1-expressing LLC-PK1 cells. The note with it: pig, llc-pk1, 50 µM.
The target is the same in data set [15]. The experiment in a line: TP_TRANSPORTER: inhibition of Digoxin transepithelial transport (basal to apical)(Digoxin: 0.025 uM, Testosterone: 50 uM) in MDR1-expressing LLC-PK1 cells. Particulars: pig, llc-pk1, 50 µM.
Data set [16] has the same target. The experiment in a line: TP_TRANSPORTER: inhibition of Daunorubicin transepithelial transport (basal to apical)(Daunorubicin: 0.035 uM, Testosterone: 50 uM) in MDR1-expressing LLC-PK1 cells. The note with it: pig, llc-pk1, 50 µM.

T1 sequence (P08183 whole entry): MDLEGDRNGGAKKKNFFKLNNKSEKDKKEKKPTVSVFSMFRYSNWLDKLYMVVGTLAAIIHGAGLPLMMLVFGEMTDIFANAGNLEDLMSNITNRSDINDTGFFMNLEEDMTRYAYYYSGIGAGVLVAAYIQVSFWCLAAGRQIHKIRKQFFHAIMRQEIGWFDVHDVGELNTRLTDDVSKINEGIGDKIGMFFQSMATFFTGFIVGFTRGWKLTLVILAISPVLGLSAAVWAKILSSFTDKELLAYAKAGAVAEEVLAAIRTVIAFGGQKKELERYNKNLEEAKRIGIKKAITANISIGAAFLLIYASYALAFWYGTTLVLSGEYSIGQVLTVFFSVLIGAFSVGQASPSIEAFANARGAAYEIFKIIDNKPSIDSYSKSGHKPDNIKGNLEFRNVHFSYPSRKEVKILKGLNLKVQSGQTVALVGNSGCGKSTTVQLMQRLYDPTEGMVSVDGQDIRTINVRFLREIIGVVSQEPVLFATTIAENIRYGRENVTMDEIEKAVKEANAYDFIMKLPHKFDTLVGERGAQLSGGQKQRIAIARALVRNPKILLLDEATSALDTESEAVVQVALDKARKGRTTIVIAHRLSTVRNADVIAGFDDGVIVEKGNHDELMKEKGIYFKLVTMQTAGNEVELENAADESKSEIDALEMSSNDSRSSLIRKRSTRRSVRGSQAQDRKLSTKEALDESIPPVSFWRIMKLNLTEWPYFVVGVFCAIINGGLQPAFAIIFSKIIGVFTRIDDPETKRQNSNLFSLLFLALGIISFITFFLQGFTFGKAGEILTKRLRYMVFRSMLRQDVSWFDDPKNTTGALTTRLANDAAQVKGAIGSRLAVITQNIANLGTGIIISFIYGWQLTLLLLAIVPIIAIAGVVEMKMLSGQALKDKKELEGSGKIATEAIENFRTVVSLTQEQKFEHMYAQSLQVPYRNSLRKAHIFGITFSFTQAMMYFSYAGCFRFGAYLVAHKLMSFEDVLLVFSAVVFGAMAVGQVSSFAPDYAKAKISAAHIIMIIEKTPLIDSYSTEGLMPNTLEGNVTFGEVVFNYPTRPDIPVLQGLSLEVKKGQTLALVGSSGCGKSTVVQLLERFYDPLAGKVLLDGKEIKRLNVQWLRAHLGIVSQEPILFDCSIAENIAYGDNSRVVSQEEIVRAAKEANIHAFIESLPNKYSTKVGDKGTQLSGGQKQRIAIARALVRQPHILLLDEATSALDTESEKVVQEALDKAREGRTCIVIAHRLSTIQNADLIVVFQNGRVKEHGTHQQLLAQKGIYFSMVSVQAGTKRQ

As for `COC(=O)c1c(C)nc(C)c(C(=O)OC)c1-c1ccccc1[N+](=O)[O-]`, the Activity result in data set [1] and in [2] was “is not an inhibitor [-]” in each case.
With `Cc1ncc2n1-c1ccc(Cl)cc1C(c1ccccc1F)=NC2O` (stereo not given) [4-Hydroxymidazolam], the Activity result in [3] was “is not an inhibitor [-]”.
Consider `CN1CCCC(N2NC(Cc3ccc(Cl)cc3)c3cc(O)ccc3C2=O)CC1` (stereo not given) [6-hydroxyazelastine], for which the Activity entry in [4] and in data set [5] was “is not an inhibitor [-]” throughout.
On to `C[C@]12CC[C@H]3[C@@H](C[C@@H](O)C4=CC(=O)CC[C@@]43C)[C@@H]1CC[C@@H]2O` [6beta-hydroxytestosterone], for which the Activity entry in [6] and in [7] was “is not an inhibitor [-]” in each case.
Take `OCc1ncc2n1-c1ccc(Cl)cc1C(c1ccccc1F)=NC2` [ALPHA-HYDROXY-MIDAZOLAM]: the Activity result in data set [8] and in data set [9] was “is not an inhibitor [-]” throughout.
Turning to `CN1CCCC(n2nc(Cc3ccc(Cl)cc3)c3ccccc3c2=O)CC1` (stereo not given) [AZELASTINE], the figures for the IC50 in data set [10] and in data set [11] were 30 µM and 16 µM, respectively.
As for `CCCCc1oc2ccccc2c1C(=O)c1cc(I)c(OCCNCC)c(I)c1` [DESETHYLAMIODARONE], the IC50 in [10] stood at 25.2 µM; in data set [11] it was 15.4 µM.
In the same order, the values of `O=c1c2ccccc2c(Cc2ccc(Cl)cc2)nn1C1CCCNCC1` (stereo not given) [DESMETHYLAZELASTINE] are 41.8 µM and 11.8 µM.
Take `Cc1ncc2n1-c1ccc(Cl)cc1C(c1ccccc1F)=NC2` [MIDAZOLAM]: the Activity result in data set [12] and in data set [13] was “is not an inhibitor [-]” throughout.
For `COC(=O)C1=C(C)NC(C)=C(C(=O)OC)C1c1ccccc1[N+](=O)[O-]` [NIFEDIPINE], the Activity result in data set [14] is “is not an inhibitor [-]”.
With `C[C@]12CC[C@H]3[C@@H](CCC4=CC(=O)CC[C@@]43C)[C@@H]1CC[C@@H]2O` [TESTOSTERONE], the Activity result in [15] and in data set [16] was “is not an inhibitor [-]” in each case.

The term IC50 denotes the concentration at which inhibition is half-maximal.

Source of the values: ChEMBL document CHEMBL2074031, “Inhibitory effects of CYP3A4 substrates and their metabolites on P-glycoprotein-mediated transport” (Eur J Pharm Sci, 2001).
